Earlier results in patent US10149821B2, “Orosoluble and/or effervescent compositions containing at least a salt of S-adenosyl methionine (SAMe)” (priority 2009, dated 2018).

What was measured:
[1] = temperatures above 0° C.
[2] = not given; remark: listed apart in the source
[3] = oral intake, SAMe radiolabeled on the carbon of the methyl group

## C[S+](CC[C@H](N)C(=O)O)C[C@H]1O[C@@H](n2cnc3c(N)ncnc32)[C@H](O)[C@@H]1O (some centres unmarked) [SAMe, S-adenosyl methionine]
[1]
  stability: very unstable
Oral intake, swallowable gastro-protected tablets
  plasma levels of the non-modified molecule, % of the administered dose: 5-10%
Parenteral administration (endovenous or intramuscular)
  plasma bioavailability, % of the administered dose: 90-100%
[2]
  half-life in the liver: about 5 minutes
[3]
  hepatic metabolism, % of the administered radioactivity: about 60%
